By IC50 is commonly meant the concentration that inhibits the measured activity by half.

Some results are limits rather than exact numbers.

In this test the target is T1, hM5 (Homo sapiens, UniProt P08912).
T1 construct: expressed in transfected cells
T1 sequence (P08912 1-532): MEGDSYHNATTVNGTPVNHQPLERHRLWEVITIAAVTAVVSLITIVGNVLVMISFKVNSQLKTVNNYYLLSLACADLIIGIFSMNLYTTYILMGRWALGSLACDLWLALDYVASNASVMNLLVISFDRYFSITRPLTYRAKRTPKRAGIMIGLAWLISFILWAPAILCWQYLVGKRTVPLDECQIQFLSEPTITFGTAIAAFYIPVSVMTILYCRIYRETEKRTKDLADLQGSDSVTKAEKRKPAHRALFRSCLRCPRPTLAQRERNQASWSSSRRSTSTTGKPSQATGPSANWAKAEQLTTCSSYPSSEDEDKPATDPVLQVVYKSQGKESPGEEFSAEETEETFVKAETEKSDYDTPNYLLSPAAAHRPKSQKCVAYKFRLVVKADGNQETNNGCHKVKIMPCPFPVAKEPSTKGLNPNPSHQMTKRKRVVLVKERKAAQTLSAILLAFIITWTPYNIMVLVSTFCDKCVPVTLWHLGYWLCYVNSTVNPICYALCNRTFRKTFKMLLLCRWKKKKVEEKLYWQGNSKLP
In words: Calcium mobilization concentration-response (IC50 vs EC80 acetylcholine), CHO hM5. The test is classed as cell-based. Particulars: CELL LINE hM5; calcium mobilization, EC80 acetylcholine addition; read-out: IC50. The essentials:
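CHO cells stably expressing hM5, dye-loaded, in HBSS/20 mM HEPES/2.5 mM probenecid, pH 7.4. Compounds were pre-incubated 140 s before an EC80 acetylcholine challenge, with calcium flux read kinetically.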
For orientation: A change in cytosolic calcium serves as a functional read-out for many receptors and channels.
`O=S(=O)(c1c(Cl)nc2sccn12)N1CCC(c2cn3ncnc3cc2C(F)(F)F)CC1` [Compound 340, 6-chloro-5-((4-(7-(trifluoromethyl)-[1,2,4]triazoto[1,5-a]pyridin-6-yl)piperidin-1-yl)sulfonyl)imidazo[2,1-b]thiazole]: the IC50 worked out at 173 nM.
With `Cc1c(S(=O)(=O)N2CCC(c3cn4ncnc4cc3C(F)(F)F)CC2)c(Cl)nn1C` [Compound 341, 6-(1-((3-chloro-1,5-dimethyl-1H-pyrazol-4-yl)sulfonyl)piperidin-4-yl)-7-(trifluoromethyl)-[1,2,4]triazolo[1,5-a]pyridine] the figure was 113 nM; with `O=S(=O)(c1cnc2ccccn12)N1CCC(c2cn3ncnc3cc2Cl)CC1` [Compound 342, 7-chloro-6-(1-(imidazo[1,2-a]pyridin-3-ylsulfonyl)piperidin-4-yl)-[1,2,4]triazolo[1,5-a]pyridine], 15 nM; with `O=S(=O)(c1cnc2n1CCCC2)N1CCC(c2cn3ncnc3cc2Cl)CC1` [Compound 343], 12 nM.
With `O=S(=O)(c1c(Cl)nc2sccn12)N1CCC(c2cn3ncnc3cc2Cl)CC1` [Compound 344, 6-chloro-5-((4-(7-chloro-[1,2,4]triazolo[1,5-a]pyridin-6-yl)piperidin-1-yl)sulfonyl)imidazo[2,1-b]thiazole] the figure was 18 nM.
The same measure for `Cc1c(S(=O)(=O)N2CCC(c3cn4ncnc4cc3C3CC3)CC2)cnn1C` [Compound 345, 7-cyclopropyl-6-(1-((1,5-dimethyl-1H-pyrazol-4-yl)sulfonyl)piperidin-4-yl)-[1,2,4]triazolo[1,5-a]pyridine]: 134 nM; for `Cc1c(C2CCN(S(=O)(=O)c3cnn(C)c3C(F)(F)F)CC2)cn2ncnc2c1F` [Compound 347, 8-fluoro-7-methyl-6-(1-((1-methyl-5-(trifluoromethyl)-1H-pyrazol-4-yl)sulfonyl)piperidin-4-yl)-[1,2,4]triazolo[1,5-a]pyridine]: 360 nM.
Take `Cc1c(C2CCN(S(=O)(=O)c3cnc4ccccn34)CC2)cn2ncnc2c1F` [Compound 348, 8-fluoro-6-(1-(imidazo[1,2-a]pyridin-3-ylsulfonyl)piperidin-4-yl)-7-methyl-[1,2,4]triazolo[1,5-a]pyridine]: the IC50 stood at 50 nM.
The same measure for `Cc1c(C2CCN(S(=O)(=O)c3cnc4n3CCCC4)CC2)cn2ncnc2c1F` [Compound 349, 8-fluoro-7-methyl-6-(1-((5,6,7,8-tetrahydroimidazo[1,2-a]pyridin-3-yl)sulfonyl)piperidin-4-yl)-[1,2,4]triazolo[1,5-a]pyridine]: 17 nM.
With `Cc1c(S(=O)(=O)N2CC=C(c3cc4c(cc3Cl)OCO4)CC2)cnn1C` [Compound 350, 4-(6-chlorobenzo[d][1,3]dioxol-5-yl)-1-((1,5-dimethyl-1H-pyrazol-4-yl)sulfonyl)-1,2,3,6-tetrahydropyridine] the figure was 11 nM.
The same measure for `Cn1ncc(S(=O)(=O)N2CC=C(c3cc4c(cc3Cl)OCO4)CC2)c1Cl` [Compound 351, 1-((5-chloro-1-methyl-1H-pyrazol-4-yl)sulfonyl)-4-(6-chlorobenzo[d][1,3]dioxol-5-yl)-1,2,3,6-tetrahydropyridine]: 142 nM.
On to `O=S(=O)(c1ccc2c(c1)CCO2)N1CC=C(c2cc3c(cc2Cl)OCO3)CC1` [Compound 352, 4-(6-chlorobenzo[d][1,3]dioxol-5-yl)-1-((2,3-dihydrobenzofuran-5-yl)sulfonyl)-1,2,3,6-tetrahydropyridine], for which the IC50 is more than 10000 nM.
With `CN1CCOc2ccc(S(=O)(=O)N3CC=C(c4cc5c(cc4Cl)OCO5)CC3)cc21` [Compound 353, 6-((4-(6-chlorobenzo[d][1,3]dioxol-5-yl)-3,6-dihydropyridin-1(2H)-yl)sulfonyl)-4-methyl-3,4-dihydro-2H-benzo[b][1,4]oxazine] the figure was more than 10000 nM.
With `Cc1cc2nccnc2cc1C1=CCN(S(=O)(=O)c2cnn(C)c2C)CC1` [Compound 354, 6-(1((1,5-dimethyl-1H-pyrazol-4-yl)sulfonyl)-1,2,3,6-tetrahydropyridin-4-yl)-7-methylquinoxaline] the figure was 64 nM.
For the molecule `Cc1cc2nccnc2cc1C1=CCN(S(=O)(=O)c2cnn(C)c2Cl)CC1` [Compound 355, 6-(1-((5-chloro-1-methyl-1H-pyrazol-4-yl)sulfonyl)-1,2,3,6-tetrahydropyridin-4-yl)-7-methylquinoxaline], the IC50 was determined as 157 nM.
The same measure for `Cc1c(S(=O)(=O)N2CCC(c3ccc4c(c3)OCO4)CC2)cnn1C` [Compound 356, 4-(benzo[d][1,3]dioxol-5-yl)-1-((1,5-dimethyl-1H-pyrazol-4-yl)sulfonyl)piperidine]: 306 nM.
With `Cn1ncc(S(=O)(=O)N2CCC(c3ccc4c(c3)OCO4)CC2)c1Cl` [Compound 357, 4-(benzo[d][1,3]dioxol-5-yl)-1-((5-chloro-1-methyl-1H-pyrazol-4-yl)sulfonyl)piperidine] the figure was 384 nM.
As to `Cc1ncc(S(=O)(=O)N2CCC(c3ccc4c(c3)OCO4)CC2)n1C` [Compound 358, 4-(benzo[d][1,3]dioxol-5-yl)-1-((1,2-dimethyl-1H-imidazol-5-yl)sulfonyl)piperidine], the IC50 worked out at 1390 nM.
With `O=S(=O)(c1ccc2c(c1)CCO2)N1CCC(c2ccc3c(c2)OCO3)CC1` [Compound 359, 4-(benzo[d][1,3]dioxol-5-yl)-1-((2,3-dihydrobenzofuran-5-yl)sulfonyl)piperidine] the figure was more than 10000 nM; with `Cc1nc(C)c(S(=O)(=O)N2CCC(c3cn4ncnc4cc3C)CC2C)s1` (centres unmarked) [Compound 360, 2,4-dimethyl-5-((2-methyl-4-(7-methyl-[1,2,4]triazolo[1,5-a]pyridin-6-yl)piperidin-1-yl)sulfonyl)thiazole], more than 10000 nM; with `Cc1cc2ncnn2cc1C1CCN(S(=O)(=O)c2cnn(C)c2Cl)C(C)C1` (centres unmarked) [Compound 361, 6-(1-((5-chloro-1-methyl-1H-pyrazol-4-yl)sulfonyl)-2-methylpiperidin-4-yl)-7-methyl-[1,2,4]triazolo[1,5-a]pyridine], 1470 nM.
With `Cc1cc2ncnn2cc1C1CCN(S(=O)(=O)c2c(C)nn(C)c2C(F)(F)F)C(C)C1` (centres unmarked) [Compound 362, 6-(1-((1,3-dimethyl-5-(trifluoromethyl)-1H-pyrazol-4-yl)sulfonyl)-2-methylpiperidin-4-yl)-7-methyl-[1,2,4]triazolo[1,5-a]pyridine] the figure was more than 10000 nM.
Consider `Cc1cc2ncnn2cc1C1CCN(S(=O)(=O)c2cnn3c2CCC3)C(C)C1` (centres unmarked) [Compound 363, 6-(1-((5,6-dihydro-4H-pyrrolo[1,2-b]pyrazol-3-yl)sulfonyl)-2-methylpiperidin-4-yl)-7-methyl-[1,2,4]triazolo[1,5-a]pyridine], for which the IC50 is 618 nM.
The same measure for `Cn1ncc(S(=O)(=O)N2CCC(c3ccncc3)CC2)c1Cl` [Compound 364, 4-(1-((5-chloro-1-methyl-1H-pyrazol-4-yl)sulfonyl)piperidin-4-yl)pyridine]: more than 10000 nM.
The same measure for `Cc1c(S(=O)(=O)N2CCC(c3ccncc3)CC2)cnn1C` [Compound 365, 4-(1-((1,5-dimethyl-1H-pyrazol-4-yl)sulfonyl)piperidin-4-yl)pyridine]: more than 10000 nM; for `O=S(=O)(c1cnn2c1CCC2)N1CCC(c2ccncc2)CC1` [Compound 366, 3-((4-(pyridin-4-yl)piperidin-1-yl)sulfonyl)-5,6-dihydro-4H-pyrrolo[1,2-b]pyrazole]: more than 10000 nM.

These data come from US20230183237A1, “COMPETITIVE AND NONCOMPETITIVE INHIBITORS OF THE MUSCARINIC ACETYLCHOLINE RECEPTOR M5” (Vanderbilt University, priority 2020, published 2023).
